This note sets out measurements from patent US20110275599A1, “USE OF COLD-STABILIZED METHYLATED VEGETABLE OILS AS AN AGRICULTURAL CHEMICAL COFORMULANT” (priority 2010, published 2011).

This data set is described as follows: High throughput solubility screen in Permaflo methylated soybean oil. The class given is physicochemical. As to the method:
The solubility of several agricultural active ingredients in Permaflo methylated soybean oil was determined using a high throughput solubility screen.
Liquid handler was calibrated for each liquid and vials were tared. Active ingredients were melted or dissolved and then transferred into tared vials. Solvent was removed or active was allowed to crystallize before weighing. Permaflo methylated soybean oil was added in desired quantities; vials were weighed, and capped. Mixtures were agitated (220 rpm) for 48 hours at 0° C. […] Samples were held at 0° C. for 24 hours before imaging. Samples were transferred to shaker plate on bench and were agitated for 48 hours, before seeding, holding for 24 hours and imaging. Samples were then transferred to 40° C. shaker plate, agitated for 48 hours, seeded, held and then imaged again. All samples were imaged using normal light.

Regarding `CCOP(=S)(OCC)Oc1nc(Cl)c(Cl)cc1Cl` [Chlorpyrifos], the “solubility in Permaflo methylated soybean oil” value (from here on “solubility”) (0° C.) came out at 35%, the “solubility” value (24° C.) stood at 55% and the “solubility” value (40° C.) is on record as more than 60%.
For `Nc1c(Cl)c(F)nc(OCC(=O)O)c1Cl` [Fluroxypyr], the “solubility” value was 25% (0° C.), 35% (24° C.) and 55% (40° C.).
